Laboratory results: patent US10793557B2, “Sting agonist compounds” (Merck Sharp & Dohme Corp., priority 2018, dated 2020)

Experiments:
full-length HAQ STING = biological target: T1, full-length HAQ STING (Homo sapiens, UniProt Q86WV6, G230A/H232R/R293Q/R71H); assay: 3H-cGAMP filtration binding assay (HAQ STING); settings: for EC50: competition with tritiated cGAMP, HAQ STING membrane
T1 construct: AviTag (after GG linker) (C); HRV3C cleavage site (after GS linker) (C); HIS8 (C); made in house; host or cells: Trichoplusia ni (Hi-Five) insect cells infected with baculovirus (virus generated and amplified in Sf21 cells); used as a washed membrane preparation
T1 sequence (Q86WV6 with tags, fused parts or gaps R71H/G230A/H232R/R293Q): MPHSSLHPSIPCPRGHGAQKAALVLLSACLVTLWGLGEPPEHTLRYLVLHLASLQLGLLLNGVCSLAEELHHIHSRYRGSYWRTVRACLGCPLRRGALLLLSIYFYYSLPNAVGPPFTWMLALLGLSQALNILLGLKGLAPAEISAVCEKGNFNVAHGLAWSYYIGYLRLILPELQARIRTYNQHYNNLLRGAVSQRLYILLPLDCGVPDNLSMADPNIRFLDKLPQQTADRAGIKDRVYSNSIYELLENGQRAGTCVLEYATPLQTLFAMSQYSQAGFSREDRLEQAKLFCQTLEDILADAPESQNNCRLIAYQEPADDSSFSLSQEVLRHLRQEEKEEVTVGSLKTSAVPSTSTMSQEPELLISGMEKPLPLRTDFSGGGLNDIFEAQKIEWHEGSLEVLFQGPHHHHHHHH
Procedure, shortened: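 Hi-Five (T. ni) membranes overexpressing the STING variant (2.2 ug/ml working) preincubated with compound 60 min at RT in PBS, then [3H]cGAMP (8 nM working stock) added for 60 min at RT. Bound radioactivity captured on GF/B filters and counted by scintillation; EC50 from 4-parameter fit of control-normalized activity.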

full-length WT STING = biological target: T2, full-length WT STING (Homo sapiens, UniProt Q86WV6, H232R); assay: 3H-cGAMP filtration binding assay (WT STING); settings: for inhibition at 2 µM: at 2,000 nM compound; for EC50: competition with tritiated cGAMP, WT STING membrane
T2 construct: AviTag (after gg linker) (C); HRV3C cleavage site (after gs linker) (C); HIS8 (C); made in house; host or cells: Trichoplusia ni (Hi-Five) insect cells infected with baculovirus (virus generated and amplified in Sf21 cells); used as a washed membrane preparation
T2 sequence (Q86WV6 with tags, fused parts or gaps H232R): as the sequence (Q86WV6 with tags, fused parts or gaps R71H/G230A/H232R/R293Q) above, with H71R, A230G, Q293R counted along it
Procedure, shortened: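 Competitive filtration binding of [3H]cGAMP (16 nM working stock) to T. ni membranes overexpressing full-length WT human STING, 60 min at RT in PBS. Bound radioactivity counted after GF/B filtration; 10-point 1:3 titration, EC50 from 4-parameter fit after control normalisation.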

[1] = tested on: secretion of interferon-beta from THP1 cells; assay: IFN-β secretion in THP1 cell culture (5 h); type: cell-based; settings: Homo sapiens, THP-1, 5 h, 30 uM cGAMP = 100%; for activation at 3 µM: compound at 3 uM, read-out: % Effect relative to 2′3′-cGAMP (@ 3 uM); for activation at 30 µM: compound at 30 μM, read-out: % Effect at 30 μM relative to 2′3′-cGAMP
Procedure, shortened: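 Thawed THP1 cells (0.8×10^6/mL, RPMI with 0.5% FBS) exposed to compounds 1.5–30000 nM (0.3% DMSO) for 5 h at 37 °C. Supernatant IFN-β quantified by AlphaLISA. Percent effect normalised to 30 uM cGAMP and DMSO controls; EC50 from 4-parameter fit.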

| Structure (SMILES) | inhibition at 2 µM (full-length HAQ STING; at 2,000 nM compound) [%] | inhibition at 2 µM (full-length WT STING) [%] | activation at 3 µM [1] [%] | EC50 (full-length HAQ STING) [nM] | EC50 (full-length WT STING) [nM] | activation at 30 µM [1] [%] |
| --- | --- | --- | --- | --- | --- | --- |
| COc1cc2sc(CC[C@H](C)C(=O)O)cc2c(Cl)c1OCCCOc1c(OC)cc2sc(C(=O)C[C@H](C)C(=O)O)cc2c1Cl [Example 152, (S)-4-(5-(3-((2-((S)-3-carboxybutyl)-4-chloro-6-methoxybenzo[b]thiophen-5-yl)oxy)propoxy)-4-chloro-6-methoxybenzo[b]thiophen-2-yl)-2-methyl-4-oxobutanoic acid] | 35 | 3 | 7 | – | – | – |
| COc1cc2sc(C(=O)C[C@H](C)C(=O)O)cc2c(Cl)c1OCCOc1c(OC)cc2sc(C(=O)C[C@H](C)C(=O)O)cc2c1Cl [Example 153, (2S,2′S)-4,4′-((ethane-1,2-diylbis(oxy))bis(4-chloro-6-methoxybenzo[b]thiophene-5,2-diyl))bis(2-methyl-4-oxobutanoic acid)] | – | – | 137 | 3 | 10 | – |
| COc1cc2sc(CC[C@H](C)C(=O)O)cc2c(Cl)c1OCCOc1c(OC)cc2sc(C(=O)C[C@H](C)C(=O)O)cc2c1Cl [Example 154, (S)-4-(5-(2-((2-((S)-3-carboxybutyl)-4-chloro-6-methoxybenzo[b]thiophen-5-yl)oxy)ethoxy)-4-chloro-6-methoxybenzo[b]thiophen-2-yl)-2-methyl-4-oxobutanoic acid] | – | 30 | 76 | 694 | – | – |
| COc1cc2sc(C(=O)C[C@H](C)C(=O)O)cc2cc1OCCCOc1c(OC)cc2sc(C(=O)C[C@H](C)C(=O)O)cc2c1Cl [Example 155, (S)-4-(5-(3-((2-((S)-3-carboxybutanoyl)-4-chloro-6-methoxybenzo[b]thiophen-5-yl)oxy)propoxy)-6-methoxybenzo[b]thiophen-2-yl)-2-methyl-4-oxobutanoic acid] | – | – | 129 | 3 | 5 | – |
| COc1cc2sc(C(=O)C[C@H](C)C(=O)O)cc2c(F)c1OCCCOc1c(OC)cc2sc(C(=O)C[C@H](C)C(=O)O)cc2c1F [Example 156, (2S,2′S)-4,4′-((propane-1,3-diylbis(oxy))bis(4-fluoro-6-methoxybenzo[b]thiophene-5,2-diyl))bis(2-methyl-4-oxobutanoic acid)] | – | – | 118 | 1 | 1 | – |
| CNc1cc2sc(C(=O)C[C@H](C)C(=O)O)cc2cc1OCCCOc1c(OC)cc2sc(C(=O)C[C@H](C)C(=O)O)cc2c1F [Example 157, (S)-4-(5-(3-((2-((S)-3-carboxybutanoyl)-4-fluoro-6-methoxybenzo[b]thiophen-5-yl)oxy)propoxy)-6-(methylamino)benzo[b]thiophen-2-yl)-2-methyl-4-oxobutanoic acid] | – | – | 63 | 1 | 1 | – |
| COc1cc2sc(CC[C@H](C)C(=O)O)cc2cc1OCCCOc1c(OC)cc2sc(C(=O)C[C@H](C)C(=O)O)cc2c1F [Example 158, (S)-4-(5-(3-((2-((S)-3-carboxybutyl)-6-methoxybenzo[b]thiophen-5-yl)oxy)propoxy)-4-fluoro-6-methoxybenzo[b]thiophen-2-yl)-2-methyl-4-oxobutanoic acid] | – | – | – | 2 | 32 | 43 |
| COc1cc2sc(C(=O)C[C@H](C)C(=O)O)cc2nc1OCCCc1c(OC)cc2sc(C(=O)C[C@H](C)C(=O)O)cc2c1F [Example 159, (S)-4-(5-(3-(2-((S)-3-carboxybutanoyl)-4-fluoro-6-methoxybenzo[b]thiophen-5-yl)propoxy)-6-methoxythieno[3,2-b]pyridin-2-yl)-2-methyl-4-oxobutanoic acid] | – | – | – | 3 | 3 | 99 |
| COc1cc2sc(C(=O)C[C@H](C)C(=O)O)cc2cc1OCC(C)COc1cc2cc(C(=O)C[C@H](C)C(=O)O)sc2cc1OC [Example 160, (2S,2′S)-4,4′-(((2-methylpropane-1,3-diyl)bis(oxy))bis(6-methoxybenzo[b]thiophene-5,2-diyl))bis(2-methyl-4-oxobutanoic acid)] | – | – | – | 1 | 6 | 18 |
| COc1cc2sc(C(=O)CCC(=O)O)cc2cc1OCCCc1c(OC)cc2sc(C(=O)C[C@H](C)C(=O)O)cc2c1F [Example 161, (S)-4-(5-(3-((2-(3-carboxypropanoyl)-6-methoxybenzo[b]thiophen-5-yl)oxy)propyl)-4-fluoro-6-methoxybenzo[b]thiophen-2-yl)-2-methyl-4-oxobutanoic acid] | – | – | – | 1 | 4 | 106 |
| COc1cc2sc(C(=O)C[C@H](C)C(=O)O)cc2cc1OCCCc1c(OC)cc2sc(C(=O)C[C@H](C)C(=O)O)cc2c1F [Example 162, (S)-4-(5-(3-(2-((S)-3-carboxybutanoyl)-4-fluoro-6-methoxybenzo[b]thiophen-5-yl)propoxy)-6-methoxybenzo[b]thiophen-2-yl)-2-methyl-4-oxobutanoic acid] | – | – | – | 1 | 4 | 98 |
| COc1cc2sc(C(=O)C[C@H](C)C(=O)O)cc2c(F)c1CCCOc1c(OC)cc2sc(C(=O)CCC(=O)O)cc2c1F [Example 163, (S)-4-(5-(3-((2-(3-carboxypropanoyl)-4-fluoro-6-methoxybenzo[b]thiophen-5-yl)oxy)propyl)-4-fluoro-6-methoxybenzo[b]thiophen-2-yl)-2-methyl-4-oxobutanoic acid] | – | – | – | 1 | 1 | 135 |
| COc1cc2sc(C(=O)C[C@H](C)C(=O)O)cc2c(F)c1CCCOc1c(OC)cc2sc(C(=O)C[C@H](C)C(=O)O)cc2c1F [Example 164, (S)-4-(5-(3-((2-((S)-3-carboxybutanoyl)-4-fluoro-6-methoxybenzo[b]thiophen-5-yl)oxy)propyl)-4-fluoro-6-methoxybenzo[b]thiophen-2-yl)-2-methyl-4-oxobutanoic acid] | – | – | – | 1 | 1 | 131 |
| COc1cc2sc(C(=O)CC(C)(C)C(=O)O)cc2c(F)c1OCCCOc1c(OC)cc2sc(C(=O)CC(C)(C)C(=O)O)cc2c1F [Example 165, 4,4′-((propane-1,3-diylbis(oxy))bis(4-fluoro-6-methoxybenzo[b]thiophene-5,2-diyl))bis(2,2-dimethyl-4-oxobutanoic acid)] | – | – | – | 2 | 3 | 21 |
| COc1cc2sc(C(=O)C[C@H](C)C(=O)O)cc2cc1OCCCOc1cc2sc(C(=O)C[C@H](C)C(=O)O)cc2nc1OC [Example 166, (S)-4-(5-(3-((2-((S)-3-carboxybutanoyl)-5-methoxythieno[3,2-b]pyridin-6-yl)oxy)propoxy)-6-methoxybenzo[b]thiophen-2-yl)-2-methyl-4-oxobutanoic acid] | – | – | – | 8 | 117 | 34 |
| COc1cc2sc(C(=O)C[C@H](C)C(=O)O)cc2c(F)c1OCCCOc1cc2sc(C(=O)C[C@H](C)C(=O)O)cc2nc1OC [Example 167, (S)-4-(6-(3-((2-((S)-3-carboxybutanoyl)-4-fluoro-6-methoxybenzo[b]thiophen-5-yl)oxy)propoxy)-5-methoxythieno[3,2-b]pyridin-2-yl)-2-methyl-4-oxobutanoic acid] | – | – | – | 4 | 19 | 66 |
| COc1cc2sc(C(=O)CCC(=O)O)cc2c(F)c1OCCCOc1cc2sc(C(=O)C[C@H](C)C(=O)O)cc2nc1OC [Example 168, (S)-4-(6-(3-((2-(3-carboxypropanoyl)-4-fluoro-6-methoxybenzo[b]thiophen-5-yl)oxy)propoxy)-5-methoxythieno[3,2-b]pyridin-2-yl)-2-methyl-4-oxobutanoic acid] | – | – | – | 13 | 199 | 102 |
| COc1cc2sc(C(=O)C[C@H](C)C(=O)O)cc2cc1OCCCOc1c(OC)cc2sc(CC[C@H](C)C(=O)O)cc2c1F [Example 169, (S)-4-(5-(3-((2-((S)-3-carboxybutyl)-4-fluoro-6-methoxybenzo[b]thiophen-5-yl)oxy)propoxy)-6-methoxybenzo[b]thiophen-2-yl)-2-methyl-4-oxobutanoic acid] | – | – | – | 1 | 18 | 64 |
| COc1cc2sc(C(=O)C[C@H](C)C(=O)O)cc2cc1OCCCOc1c(OC)cc2sc(C(=O)[C@@H]3CC[C@H]3C(=O)O)cc2c1F [Example 170, trans-2-(5-(3-((2-((S)-3-carboxybutanoyl)-6-methoxybenzo[b]thiophen-5-yl)oxy)propoxy)-4-fluoro-6-methoxybenzo[b]thiophene-2-carbonyl)cyclobutanecarboxylic acid] | – | – | – | 1 | 3 | 86 |
